The values below come from patent publication US5885834A, “Antisense oligodeoxynucleotide against phosphodiesterase” (priority 1997, dated 1999).

“Also recorded” adds a separate entry of the source.

Holding throughout (type): cell-based, human
One data set relates to isolated, quiescent HPBL. Briefly: TUNEL assay of apoptosis, flow cytometry, quiescent HPBL. Particulars: isolated, quiescent HPBL in culture, ODN added. The source says: (§1) Nevertheless, the effects of AS ODNs on HPBL can still be tested by quantifying and comparing the percentage of cells undergoing apoptosis in the presence and absence of the AS ODN. Apoptosis detected by examining endonuclease-digested DNA, commonly referred to as the DNA laddering technique, has been employed and the results therefrom are set forth in FIG. 5. However, we prefer to use a TUNEL assay, an acronym for terminal deoxynucleotidyl transferase (TdT)-mediated dUTP nick end labeling, which more readily allows quantitation of the percentage of cells undergoing apoptosis. The principle of the TUNEL assay is that endonuclease digestion during apoptosis results in the formation of 3'-OH ends in the digested DNA. The digested DNA in the apoptotic cells can then be labeled with fluorescein by catalytically incorporating fluorescein-12-dUTP at the 3'-OH ends using the TdT enzyme. Fluorescence can then be quantitated by flow cytometry, using a fluorescence activated cell sorter (FACS), which would give a measure of the number of cells undergoing apoptosis. An example of the appearance of a population of fluorescein labeled apoptotic cells, as evidenced by flow cytometry, following TUNEL assay labeling of the cells, is shown in FIGS. 6A-C. Cells were then cultured for 3 days with 10 μg/ml PHA-P (Sigma), in the absence of any ODN (FIG. 6A), in the presence of 30 μM NS ODN (FIG. 6B), or in the presence of 30 μM AS ODN (FIG. 6C). Cells were then collected by centrifugation and fluorescein labeled by the TUNEL assay using the Promega Apoptosis Detection System. Flow cytometry was performed on a Beckton Dickinson FACScan by the FACS facility.
The procedure for analyzing apoptosis by the TUNEL method uses either an In Situ Cell Death Kit, Fluorescein from Boehringer Mannheim or an Apoptosis Detection System, Fluorescein from Promega and follows the protocols of the manufacturers. The data in FIGS. 6 and 7 was obtained using the manufacturer's protocol for the Apoptosis Detection System, Fluorescein from Promega. […]
A general note: A flow cytometer gives signals particle by particle.

The test system of another data set is RPMI 8392 cells. Briefly: Apoptosis by endonuclease-digested DNA (DNA laddering) on agarose gels. Particulars: RPMI 8392 cells. As for the experimental part: The preferred method for testing the ability of AS ODN to induce apoptosis as determined by detection of endonuclease digested DNA on agarose gels employs the following sequence:
(2) Cells are grown to ≈10^6 /ml, collected by centrifugation for 5 min. at 300×g (1000 rpm in an IEC Model K centrifuge), resuspended in growth medium to 10^6 cells/ml, and placed in a 24 well tissue culture plate at 1 ml/well. The cell volumes are kept to a minimum (i.e., -1 ml), in order to reduce the amount of ODN needed. The fetal bovine serum used in the growth medium for this step is heat-inactivated at 65° C. for 1 hr. to minimize serum nuclease activity.
(4) Cells are then incubated for varying times, usually 1-3 days, following which the DNA is isolated.
The supernatant is aspirated down to ≈50 μl of volume and the cell pellet is resuspended in this remaining small volume.
(6) About 400 μl of cold cell lysis buffer (50 mM Tris-HCl, pH 7.5, 10 mM EDTA, 1% Triton X-100) is then added.
(9) The upper, aqueous phase is transferred to a fresh microfuge tube and 250 μl of phenol and 250 μl of chloroform are added, the mixture gently vortexed for 5 sec., and centrifuged at 16,650×g for 5 min.
(10) The upper, aqueous phase is again transferred to a fresh microfuge tube and 500 μl of chloroform is added, followed by gentle vortexing and centrifugation at 16,650×g for 3 min.
(11) The upper, aqueous phase is again transferred to a fresh microfuge tube, 3M sodium acetate (pH 5.2) is added to a final concentration of 0.3M, and 2.5 volumes of ice cold 100% ethanol is added. The solution is left overnight at -20° C. to precipitate the DNA.
(12) The DNA is collected by centrifugation at 16,650×g for 15 min., the supernatant decanted, and the pellet air dried for ≈30-60 min. at room temperature. The DNA pellet is then dissolved in 50 μl of pH 8.0 TE buffer at room temperature overnight.
(13) One μl of a 4 mg/ml solution of DNase-free RNase A is then added to the DNA and incubation is carried out at 37° C. for 30 min. This step is necessary to prevent contaminating RNA from obscuring the gel.
(14) Thirty μl of DNA solution is then mixed with 6 μl of 6× loading buffer and run on a 2% agarose gel, containing 0.5 μg/ml ethidium bromide, in 0.5× TBE buffer (45 mM Tris-borate, 1 mM EDTA, pH 8.0) at ≈50 V for ≈1.5 hr. The 6× loading buffer used is 0.25% xylene cyanol and 30% glycerol. The use of bromophenol blue is omitted for this analysis because it tends to obscure the visualization of the DNA ladder pattern.
(15) The gel is then visualized and photographed under UV light.
The effect of pharmacological inhibition of each of these PDE activities on induction of apoptosis in RPMI 8392 cells was tested, using the appearance of oligonucleosome length fragments of endonuclease digested DNA as a measure of apoptosis.
Markers (lane 1 in both gels) are 1 kb DNA ladder size markers from GIBCO/BRL.
Cells (10^6) were collected by centrifugation at 670×g for 5 min. The cell pellets were rinsed once with 0.2M dibasic sodium phosphate and lysed in 300 μl of lysis buffer (50 mM Tris/HCl pH 7.5, 10 mM EDTA, 1% V/V Triton X-100) for 20 min on ice. Proteinase K was added to 0.5 mg/ml and DNase-free RNase was added to 50 μg/ml and the extract incubated at 37° C. for 1 hr. DNA was then extracted in phenol/chloroform (1:1) and chloroform (1:1) and precipitated in 2.5 volumes of ethanol. The extracted DNA was electrophoresed on 2% agarose gels, the gels stained with 0.5 μg/ml ethidium bromide and photographed under UV light.
Experiments were conducted to determine if inhibition of the expression of the gene for PDE1B1 could induce apoptosis.

The test system of another data set is PHA-stimulated HPBL. Nature of the data set: TUNEL assay of apoptosis, flow cytometry, PHA-stimulated HPBL. Particulars: 10 μg/ml PHA-P; 30 μM ODN; 3 days.
Description: as §1, with “Cells were then cultured for 3 days with 10 μg/ml PHA-P (Sigma), in the absence of any ODN (FIG. 6A), in the presence of 30 μM NS ODN (FIG. 6B), or in the presence of 30 μM AS ODN (FIG. 6C). Cells were then collected by centrifugation and fluorescein labeled by the TUNEL assay using the Promega Apoptosis Detection System. Flow cytometry was performed on a Beckton Dickinson FACScan by the FACS facility.” left out

Consider “5'-TACGTGAGGCACCTACGC-3' (phosphorothioate, further chemistry not given here) [NS ODN, control phosphorothioate nonsense ODN, same base composition as the AS ODN in random, scrambled order]”, for which the “Rate of formation of apoptotic HPBL cells (TUNEL)” value in the data set on isolated, quiescent HPBL was “no different from control”. In addition, the “Induction of apoptosis (DNA fragmentation)” value was “did not” in the data set on RPMI 8392 cells (30 μM ODN, 2 days (48 hr)); “no effect” in the data set on RPMI 8392 cells (any concentration tested (0.3-30 μM), 1, 2 and 3 days). The “Apoptosis in PHA-stimulated HPBL (TUNEL)” value with PHA-stimulated HPBL is given as “do not show the appearance of this population; also recorded: no effect”.

For “5'-GGACAGCTCCATGCTCAG-3' (phosphorothioate, further chemistry not given here) [AS ODN, 18 nt phosphorothioate antisense oligodeoxynucleotide targeted against the translation initiation region of PDE1B1]”, the “Rate of formation of apoptotic HPBL cells (TUNEL)” value with isolated, quiescent HPBL is “unchanged”. Also, the “Induction of apoptosis (DNA fragmentation)” value in the data set with RPMI 8392 cells (10 μM ODN, 3 days) was “induced apoptosis”; in the data set on RPMI 8392 cells (30 μM ODN, 2 days (48 hr)), “clearly induced apoptosis”; in the data set on RPMI 8392 cells (30 μM ODN, 3 days), “induced apoptosis”. Further, the “Apoptosis in PHA-stimulated HPBL (TUNEL)” value with PHA-stimulated HPBL was “show the appearance of a population of highly fluorescein labeled cells; also recorded: induced apoptosis”.
